Measured values reported in patent US5885994A, “Tetrahydroquinoxaline dopamine D4 receptor antagonists” (Warner-Lambert Company, priority 1998, dated 1999).

How the values were obtained:
[1] = test system: amphetamine-stimulated locomotion; test: Blockade of amphetamine-stimulated locomotion in rats; type: in vivo, rat
Excerpt: PROTOCOL FOR THE BLOCKADE OF AMPHETAMINE-STIMULATED LOCOMOTION IN RATS
The blockade of amphetamine-stimulated locomotion procedure is a modification of the Locomotor Activity Protocol in the Omnitech Digiscan Activity Monitors described above. The blockade of amphetamine-stimulated locomotion procedure uses the central nervous system stimulant d-amphetamine to assess antipsychotic activity of dopaminergic agents.
Male Sprague-Dawley rats (Harlan Labs) were used for these studies. Drugs were dissolved in saline or water, and administered either orally (PO) or intraperitoneally (IP) in volumes of 5 mL/kg. Saline control rats and amphetamine (0.5 mg/kg IP) control rats are included with each study (n=4-6 rats per treatment group). For the IP studies, amphetamine is given 20 minutes prior to the drug, after which a 30 minute locomotor activity test is conducted. For the oral study, drug is dosed 30 minutes prior to the test, while amphetamine is given 15 minutes prior to the test, which allows time for oral absorption. Locomotor activity (centimeters travelled per 30 minute test) is measured in 16"×16" open chambers. Amphetamine generally produces a 2- to 3-fold increase in locomotion over saline controls. Drug effects are reported as percent reversal of amphetamine-stimulated locomotion. Significant changes in amphetamine-stimulated locomotion, relative to amphetamine treated controls, were determined by t-test. The dose which would reverse amphetamine-stimulated locomotion by 50% (ED50) and the 95% confidence limits were estimated by regression analysis.

[2] = test system: apomorphine-induced disruption of prepulse inhibition; test: Prepulse inhibition of acoustic startle model in rats; type: in vivo; conditions: rat, 30 mg/kg IP
Excerpt: PROTOCOL FOR THE PREPULSE INHIBITION OF ACOUSTIC STARTLE MODEL IN RATS
Prepulse inhibition (PPI) of acoustic startle is a form of sensorimotor gating which occurs when a weak stimulus precedes a startling stimulus, resulting in diminution of the startle response amplitude. […] Thus, an animal model utilizing this phenomenon would be quite useful in the study of known and potential antipsychotic agents.
This indicates a possible role of DA D2-like receptor stimulation in reducing sensorimotor gating in the rat.
Male Sprague-Dawley rats from Harlan Labs (180-280 g) were housed in groups of five rats per cage and maintained on a 12-hour light/dark cycle with free access to food pellets and water. […]
Eight startle chambers (SR-LAB, San Diego Instruments) were used, each consisting of a Plexiglas cylinder resting on a Plexiglas frame within a ventilated sound-attenuating enclosure. […] The average responses during the 100 msec record window (100×1 msec readings) were recorded by microcomputer and interface assembly (San Diego Instruments). […] Sound levels were assessed with a Radio Shack dB meter. […]
The test session in all experiments consisted of a total of 90 trials after a 5-minute test acclimation period of 70 dB white noise. […] When the prepulse was paired with the 120 dB pulse, no obvious acoustic difference could be detected by the human ear as compared to the 120 dB pulse alone. […]

Cc1ccc(N2CCN(Cc3ccc4c(c3)NCCN4)CC2)cc1C [Example 2, 6-[4-(3,4-Dimethylphenyl)piperazin-1-ylmethyl]-1,2,3,4-tetrahydroquinoxaline]
blockade of amphetamine-stimulated locomotion (result in words) ([1]; rat, 1, 3, 10 and 30 mg/kg IP): dose-dependent blockade | ED50 ([1]; rat, PO, read-out: oral blockade of amphetamine-stimulated locomotion ED50): 5.8 mg/kg | blockade of apomorphine-induced disruption of prepulse inhibition in the Acoustic Startle test [2]: significant blockade
